Data reported in patent publication US20090298820A1, “3-SUBSTITUTED-1H-PYRROLO[2,3-B]PYRIDINE AND 3-SUBSTITUTED-1H-PYRROLO[3,2-B]PYRIDINE COMPOUNDS, THEIR USE AS MTOR KINASE AND PI3 KINASE INHIBITORS, AND THEIR SYNTHESES” (Wyeth, priority 2008, published 2009).

Tests used:
Format in all cases: biochemical
PI3Kγ = PI3Kγ (Homo sapiens, UniProt P48736); experiment: PI3K-gamma fluorescence polarization assay; details: read-out: PI3Kγ Median IC50
mTOR = mTOR (Homo sapiens, UniProt P42345); experiment: mTOR enzyme assay (DELFIA format, His6-S6K substrate); details: read-out: mTOR Kinase Median IC50
PI3Kα = PI3Kα (Homo sapiens, UniProt P42336); experiment: PI3K-alpha fluorescence polarization assay; details: read-out: PI3Kα Median IC50
Chain of PI3Kα (P42336 whole entry, species assumed): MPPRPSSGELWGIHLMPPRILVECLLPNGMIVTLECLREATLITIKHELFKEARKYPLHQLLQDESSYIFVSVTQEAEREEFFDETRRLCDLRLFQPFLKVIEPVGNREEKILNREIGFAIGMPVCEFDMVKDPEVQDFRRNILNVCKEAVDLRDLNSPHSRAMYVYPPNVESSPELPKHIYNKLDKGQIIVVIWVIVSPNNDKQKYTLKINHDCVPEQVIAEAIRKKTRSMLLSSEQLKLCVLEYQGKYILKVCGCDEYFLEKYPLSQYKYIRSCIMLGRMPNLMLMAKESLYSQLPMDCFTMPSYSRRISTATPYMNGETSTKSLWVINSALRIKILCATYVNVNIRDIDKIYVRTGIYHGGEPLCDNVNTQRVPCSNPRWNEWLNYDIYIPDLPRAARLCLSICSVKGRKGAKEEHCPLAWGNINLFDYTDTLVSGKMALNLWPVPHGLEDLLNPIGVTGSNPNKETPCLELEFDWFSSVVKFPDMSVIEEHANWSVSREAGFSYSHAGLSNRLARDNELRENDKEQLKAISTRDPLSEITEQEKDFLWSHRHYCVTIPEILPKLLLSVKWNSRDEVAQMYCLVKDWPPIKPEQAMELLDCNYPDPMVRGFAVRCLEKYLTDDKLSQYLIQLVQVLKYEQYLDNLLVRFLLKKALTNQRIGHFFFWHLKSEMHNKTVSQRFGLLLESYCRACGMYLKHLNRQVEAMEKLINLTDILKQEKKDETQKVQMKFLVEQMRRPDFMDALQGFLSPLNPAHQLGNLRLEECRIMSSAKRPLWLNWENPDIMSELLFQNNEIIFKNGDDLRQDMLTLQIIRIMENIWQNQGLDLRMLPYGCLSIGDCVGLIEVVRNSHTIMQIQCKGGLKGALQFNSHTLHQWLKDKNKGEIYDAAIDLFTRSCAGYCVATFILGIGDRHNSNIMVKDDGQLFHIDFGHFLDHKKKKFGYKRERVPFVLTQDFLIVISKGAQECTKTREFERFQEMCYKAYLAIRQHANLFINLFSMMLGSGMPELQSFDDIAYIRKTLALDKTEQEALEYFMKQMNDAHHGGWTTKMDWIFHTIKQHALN
Chain of PI3Kα (P27986 whole entry partner, species assumed): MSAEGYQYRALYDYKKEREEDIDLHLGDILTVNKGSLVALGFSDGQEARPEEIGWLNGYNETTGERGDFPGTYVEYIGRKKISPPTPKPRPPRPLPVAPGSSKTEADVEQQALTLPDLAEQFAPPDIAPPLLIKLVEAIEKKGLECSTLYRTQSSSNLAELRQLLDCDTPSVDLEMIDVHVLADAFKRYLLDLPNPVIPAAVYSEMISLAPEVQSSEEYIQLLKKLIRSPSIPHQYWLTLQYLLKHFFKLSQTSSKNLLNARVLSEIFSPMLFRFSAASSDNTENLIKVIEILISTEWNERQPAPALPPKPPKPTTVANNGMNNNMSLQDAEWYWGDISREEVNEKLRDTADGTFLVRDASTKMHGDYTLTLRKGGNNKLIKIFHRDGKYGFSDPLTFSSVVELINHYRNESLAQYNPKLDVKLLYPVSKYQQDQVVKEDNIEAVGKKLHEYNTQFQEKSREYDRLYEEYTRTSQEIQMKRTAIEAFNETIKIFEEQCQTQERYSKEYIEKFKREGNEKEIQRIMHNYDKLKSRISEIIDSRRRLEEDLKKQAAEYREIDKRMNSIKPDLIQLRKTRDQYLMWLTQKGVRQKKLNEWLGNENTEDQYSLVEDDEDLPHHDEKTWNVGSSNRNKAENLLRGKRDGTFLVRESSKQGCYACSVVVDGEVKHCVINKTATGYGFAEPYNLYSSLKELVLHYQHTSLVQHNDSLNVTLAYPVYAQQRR

Chain of PI3Kγ (P48736 whole entry, species assumed): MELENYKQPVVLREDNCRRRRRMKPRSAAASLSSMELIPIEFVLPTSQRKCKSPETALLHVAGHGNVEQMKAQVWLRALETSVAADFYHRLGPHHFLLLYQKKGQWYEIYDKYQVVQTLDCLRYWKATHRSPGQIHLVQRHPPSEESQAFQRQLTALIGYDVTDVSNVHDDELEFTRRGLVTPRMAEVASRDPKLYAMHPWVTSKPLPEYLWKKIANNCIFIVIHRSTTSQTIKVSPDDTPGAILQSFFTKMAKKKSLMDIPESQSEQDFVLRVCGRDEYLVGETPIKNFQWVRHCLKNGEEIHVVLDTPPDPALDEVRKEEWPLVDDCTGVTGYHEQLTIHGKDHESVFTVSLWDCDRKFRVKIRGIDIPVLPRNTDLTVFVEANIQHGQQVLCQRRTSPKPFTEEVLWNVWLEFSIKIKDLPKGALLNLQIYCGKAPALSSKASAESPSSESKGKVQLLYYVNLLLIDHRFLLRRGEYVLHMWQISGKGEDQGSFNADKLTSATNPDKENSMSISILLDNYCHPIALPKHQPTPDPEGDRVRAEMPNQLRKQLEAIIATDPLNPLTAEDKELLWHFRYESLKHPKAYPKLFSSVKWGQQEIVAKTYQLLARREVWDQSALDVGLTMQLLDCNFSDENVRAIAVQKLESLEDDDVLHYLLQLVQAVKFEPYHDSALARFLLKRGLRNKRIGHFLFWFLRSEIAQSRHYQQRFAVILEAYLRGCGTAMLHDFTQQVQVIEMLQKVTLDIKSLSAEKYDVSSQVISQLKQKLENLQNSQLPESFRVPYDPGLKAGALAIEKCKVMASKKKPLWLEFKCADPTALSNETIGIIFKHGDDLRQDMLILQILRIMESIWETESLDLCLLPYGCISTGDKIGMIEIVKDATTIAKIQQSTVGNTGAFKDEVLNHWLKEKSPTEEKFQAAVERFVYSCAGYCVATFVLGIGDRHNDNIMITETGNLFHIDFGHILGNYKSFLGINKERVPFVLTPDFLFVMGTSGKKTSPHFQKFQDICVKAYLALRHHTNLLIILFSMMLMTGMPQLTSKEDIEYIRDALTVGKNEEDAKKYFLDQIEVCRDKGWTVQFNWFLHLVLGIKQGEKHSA

Row | SMILES | IC50 (PI3Kγ) [nM] | IC50 (mTOR) [nM] | IC50 (PI3Kα) [nM]
1 | COC1CCN(C(=O)C2CCN(c3ccnc4c3c(/C=C3\Oc5ccc(NC(=O)Nc6cccnc6)cc5C3=O)cn4C)CC2)C1 (stereo not drawn) [Compound 275, 1-{(2Z)-2-[(4-{4-[(3-methoxypyrrolidin-1-yl)carbonyl]piperidin-1-yl}-1-methyl-1H-pyrrolo[2,3-b]pyridin-3-yl)methylidene]-3-oxo-2,3-dihydro-1-benzofuran-5-yl}-3-pyridin-3-ylurea] | 1330 | 13 | 1610
2 | CC1CN(C(=O)C2CCN(c3ccnc4c3c(/C=C3\Oc5ccc(NC(=O)Nc6cccnc6)cc5C3=O)cn4C)CC2)CC(C)O1 (stereo not drawn) [Compound 265, 1-{(2Z)-2-[(4-{4-[(2,6-dimethylmorpholin-4-yl)carbonyl]piperidin-1-yl}-1-methyl-1H-pyrrolo[2,3-b]pyridin-3-yl)methylene]-3-oxo-2,3-dihydro-1-benzofuran-5-yl}-3-pyridin-3-ylurea] | 1190 | 40.5 | 3750
3 | CN(C)CCN(C)C(=O)C1CCN(c2ccnc3c2c(/C=C2\Oc4ccc(NC(=O)Nc5cccnc5)cc4C2=O)cn3C)CC1 [Compound 266, N-[2-(dimethylamino)ethyl]-N-methyl-1-{1-methyl-3-[(Z)-{3-oxo-5-[(pyridin-3-ylcarbamoyl)amino]-1-benzofuran-2(3H)-ylidene}methyl]-1H-pyrrolo[2,3-b]pyridin-4-yl}piperidine-4-carboxamide] | 1200 | 42.5 | > 10000
4 | C[C@@H]1CN(C2CCN(c3ccnc4c3c(/C=C3\Oc5ccc(NC(=O)Nc6cccnc6)cc5C3=O)cn4C)CC2)C[C@H](C)O1 [Compound 239, 1-{(2Z)-2-[(4-{4-[(2R,6S)-2,6-dimethylmorpholin-4-yl]piperidin-1-yl}-1-methyl-1H-pyrrolo[2,3-b]pyridin-3-yl)methylidene]-3-oxo-2,3-dihydro-1-benzofuran-5-yl}-3-pyridin-3-ylurea] | 748 | 64 | 326
5 | CN(C)CCNC(=O)C1CCN(c2ccnc3c2c(/C=C2\Oc4ccc(NC(=O)Nc5cccnc5)cc4C2=O)cn3C)CC1 [Compound 261, N-[2-(dimethylamino)ethyl]-1-{1-methyl-3-[(Z)-{3-oxo-5-[(pyridin-3-ylcarbamoyl)amino]-1-benzofuran-2(3H)-ylidene}methyl]-1H-pyrrolo[2,3-b]pyridin-4-yl}piperidine-4-carboxamide] | 886 | 22.5 | > 10000
6 | Cn1cc(/C=C2\Oc3ccc(NC(=O)Nc4nc5ccccc5n4C)cc3C2=O)c2c(N3CC4CCC(C3)O4)ccnc21 [Compound 289, 1-(1-methyl-1H-benzimidazol-2-yl)-3-[(2Z)-2-{[1-methyl-4-(8-oxa-3-azabicyclo[3.2.1]oct-3-yl)-1H-pyrrolo[2,3-b]pyridin-3-yl]methylidene}-3-oxo-2,3-dihydro-1-benzofuran-5-yl]urea] | > 10000 | 205 | 5710
7 | Cn1cc(/C=C2\Oc3cccc(O)c3C2=O)c2c(-c3ccc(Oc4ccccc4)cc3)ccnc21 [Compound 84, (2Z)-4-hydroxy-2-{[1-methyl-4-(4-phenoxyphenyl)-1H-pyrrolo[2,3-b]pyridin-3-yl]methylene}-1-benzofuran-3(2H)-one] | > 10000 | 165 | 4880
8 | CCn1cc(/C=C2\Oc3cccc(O)c3C2=O)c2c(-c3ccccc3)ccnc21 [Compound 116, (2Z)-2-[(1-ethyl-4-phenyl-1H-pyrrolo[2,3-b]pyridin-3-yl)methylene]-4-hydroxy-1-benzofuran-3(2H)-one] | > 10000 | 23 | 8490
9 | Cn1cc(C=C2Oc3ccc(NC(=O)Nc4cccnc4)cc3C2=O)c2c(N3CCC(C(=O)N[C@@H]4CCNC4)CC3)ccnc21 [Compound 207, 1-[1-methyl-3-({3-oxo-5-[(pyridin-3-ylcarbamoyl)amino]-1-benzofuran-2(3H)-ylidene}methyl)-1H-pyrrolo[2,3-b]pyridin-4-yl]-N-[(3R)-pyrrolidin-3-yl]piperidine-4-carboxamide] | 4290 | 16 | ≥ 10000
10 | CN(Cc1ccccc1)C(=O)C1CCN(c2ccnc3c2c(C=C2Oc4ccc(NC(=O)Nc5cccnc5)cc4C2=O)cn3C)CC1 [Compound 215, N-benzyl-N-methyl-1-[1-methyl-3-({3-oxo-5-[(pyridin-3-ylcarbamoyl)amino]-1-benzofuran-2(3H)-ylidene}methyl)-1H-pyrrolo[2,3-b]pyridin-4-yl]piperidine-4-carboxamide] | 9280 | 102 | > 10000
11 | Cn1cc(/C=C2\Oc3cccc(O)c3C2=O)c2c(-c3ccc(-c4ccco4)cc3)ccnc21 [Compound 127, (2Z)-2-({4-[4-(2-furyl)phenyl]-1-methyl-1H-pyrrolo[2,3-b]pyridin-3-yl}methylene)-4-hydroxy-1-benzofuran-3(2H)-one] | 829 | 8.1 | 107

Stronger by IC50 (PI3Kγ), values ahead:

Row | IC50 (PI3Kγ) [nM] | IC50 (mTOR) [nM] | IC50 (PI3Kα) [nM] | SMILES
12 | 550 | 4.6 | 445 | CCn1cc(/C=C2\Oc3cccc(O)c3C2=O)c2c(-c3ccc(C(=O)N4CCN(CCO)CC4)cc3)ccnc21 [Compound 186, (2Z)-2-{[1-ethyl-4-(4-{[4-(2-hydroxyethyl)piperazin-1-yl]carbonyl}phenyl)-1H-pyrrolo[2,3-b]pyridin-3-yl]methylidene}-4-hydroxy-1-benzofuran-3(2H)-one]
13 | 532 | 11.4 | 49 | Cn1cc(/C=C2\Oc3ccc(NC(=O)NC4CNC4)cc3C2=O)c2c(N3CC4CCC(C3)O4)ccnc21 [Compound 285, 1-azetidin-3-yl-3-[(2Z)-2-{[1-methyl-4-(8-oxa-3-azabicyclo[3.2.1]oct-3-yl)-1H-pyrrolo[2,3-b]pyridin-3-yl]methylidene}-3-oxo-2,3-dihydro-1-benzofuran-5-yl]urea]
14 | 529 | 17.5 | 2060 | COC1CCN(C(=O)c2ccc(-c3ccnc4c3c(/C=C3\Oc5ccc(NC(=O)Nc6cccnc6)cc5C3=O)cn4C)cc2)C1 (stereo not drawn) [Compound 259, 1-{(2Z)-2-[(4-{4-[(3-methoxypyrrolidin-1-yl)carbonyl]phenyl}-1-methyl-1H-pyrrolo[2,3-b]pyridin-3-yl)methylene]-3-oxo-2,3-dihydro-1-benzofuran-5-yl}-3-pyridin-3-ylurea]
15 | 484 | 30 | 3300 | COCCN(C)C(=O)c1ccc(-c2ccnc3c2c(/C=C2\Oc4ccc(NC(=O)Nc5cccnc5)cc4C2=O)cn3C)cc1 [Compound 247, N-(2-methoxyethyl)-N-methyl-4-{1-methyl-3-[(Z)-{3-oxo-5-[(pyridin-3-ylcarbamoyl)amino]-1-benzofuran-2(3H)-ylidene}methyl]-1H-pyrrolo[2,3-b]pyridin-4-yl}benzamide]
16 | 199 | 0.6 | 123 | CN(C)c1cccc(-c2ccnc3c2c(/C=C2\Oc4cc(O)cc(O)c4C2=O)cn3C)c1 [Compound 52, (2Z)-2-({4-[3-(dimethylamino)phenyl]-1-methyl-1H-pyrrolo[2,3-b]pyridin-3-yl}methylene)-4,6-dihydroxy-1-benzofuran-3(2H)-one]
17 | 168 | 41.5 | 64 | Cn1cc(C=C2Oc3cc(O)cc(O)c3C2=O)c2cccnc21 [Compound 1, 4,6-dihydroxy-2-[(1-methyl-1H-pyrrolo[2,3-b]pyridin-3-yl)methylene]-1-benzofuran-3(2H)-one]
18 | 152 | 0.9 | 73 | COCCN(C)C(=O)c1ccc(-c2ccnc3c2c(/C=C2\Oc4cccc(O)c4C2=O)cn3C)cc1 [Compound 175, 4-{3-[(Z)-(4-hydroxy-3-oxo-1-benzofuran-2(3H)-ylidene)methyl]-1-methyl-1H-pyrrolo[2,3-b]pyridin-4-yl}-N-(2-methoxyethyl)-N-methylbenzamide]
19 | 101 | 3 | 34 | Cn1cc(/C=C2\Oc3cccc(O)c3C2=O)c2c(-c3ccc(S(=O)(=O)N4CCOCC4)cc3)ccnc21 [Compound 191, (2Z)-4-hydroxy-2-({1-methyl-4-[4-(morpholin-4-ylsulfonyl)phenyl]-1H-pyrrolo[2,3-b]pyridin-3-yl}methylidene)-1-benzofuran-3(2H)-one]
20 | 93 | 13 | 43 | Cn1cc(/C=C2\Oc3cccc(O)c3C2=O)c2c(-c3cccc(O)c3)ccnc21 [Compound 125, (2Z)-4-hydroxy-2-{[4-(3-hydroxyphenyl)-1-methyl-1H-pyrrolo[2,3-b]pyridin-3-yl]methylene}-1-benzofuran-3(2H)-one]
21 | 83 | 0.2 | 25 | Cn1cc(/C=C2\Oc3cc(O)cc(O)c3C2=O)c2c(-c3ccc(N4CCOCC4)cc3)ccnc21 [Compound 49, (2Z)-4,6-dihydroxy-2-{[1-methyl-4-(4-morpholin-4-ylphenyl)-1H-pyrrolo[2,3-b]pyridin-3-yl]methylene}-1-benzofuran-3(2H)-one]
22 | 66 | 1 | 41 | CON(C)C(=O)c1ccc(-c2ccnc3c2c(/C=C2\Oc4cccc(O)c4C2=O)cn3C)cc1 [Compound 196, 4-{3-[(Z)-(4-hydroxy-3-oxo-1-benzofuran-2(3H)-ylidene)methyl]-1-methyl-1H-pyrrolo[2,3-b]pyridin-4-yl}-N-methoxy-N-methylbenzamide]
23 | 51 | 0.4 | 104 | Cn1cc(/C=C2\Oc3cccc(O)c3C2=O)c2c(N3CC4CCC(C3)O4)ccnc21 [Compound 55, (2Z)-4-hydroxy-2-{[1-methyl-4-(8-oxa-3-azabicyclo[3.2.1]oct-3-yl)-1H-pyrrolo[2,3-b]pyridin-3-yl]methylene}-1-benzofuran-3(2H)-one]
24 | 22 | 0.2 | 2 | CNS(=O)(=O)c1ccc(-c2ccnc3c2c(/C=C2\Oc4cc(O)cc(O)c4C2=O)cn3C)cc1 [Compound 77, 4-{3-[(Z)-(4,6-dihydroxy-3-oxo-1-benzofuran-2(3H)-ylidene)methyl]-1-methyl-1H-pyrrolo[2,3-b]pyridin-4-yl}-N-methylbenzenesulfonamide]
